Format in all cases: functional
The target in test [1] is T1, Neuropeptide Y receptor type 1 (Homo sapiens) (UniProt P25929).
T1 sequence (whole entry): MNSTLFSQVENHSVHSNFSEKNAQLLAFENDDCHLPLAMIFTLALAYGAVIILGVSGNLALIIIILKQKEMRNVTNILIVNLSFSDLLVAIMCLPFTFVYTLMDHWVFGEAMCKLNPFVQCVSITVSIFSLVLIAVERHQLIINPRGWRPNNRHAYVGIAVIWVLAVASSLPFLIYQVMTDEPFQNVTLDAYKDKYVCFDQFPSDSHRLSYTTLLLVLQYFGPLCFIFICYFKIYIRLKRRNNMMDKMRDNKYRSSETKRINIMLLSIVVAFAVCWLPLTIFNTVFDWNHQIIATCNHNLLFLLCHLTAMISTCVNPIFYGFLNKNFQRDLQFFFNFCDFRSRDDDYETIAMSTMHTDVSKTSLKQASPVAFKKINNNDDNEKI
Kind of test: Antagonist activity at neuropeptide Y receptor Y1 at 10 uM.

In test [2] the target is T2, Neuropeptide Y receptor type 2 (Homo sapiens, UniProt P49146).
T2 sequence (P49146 whole entry): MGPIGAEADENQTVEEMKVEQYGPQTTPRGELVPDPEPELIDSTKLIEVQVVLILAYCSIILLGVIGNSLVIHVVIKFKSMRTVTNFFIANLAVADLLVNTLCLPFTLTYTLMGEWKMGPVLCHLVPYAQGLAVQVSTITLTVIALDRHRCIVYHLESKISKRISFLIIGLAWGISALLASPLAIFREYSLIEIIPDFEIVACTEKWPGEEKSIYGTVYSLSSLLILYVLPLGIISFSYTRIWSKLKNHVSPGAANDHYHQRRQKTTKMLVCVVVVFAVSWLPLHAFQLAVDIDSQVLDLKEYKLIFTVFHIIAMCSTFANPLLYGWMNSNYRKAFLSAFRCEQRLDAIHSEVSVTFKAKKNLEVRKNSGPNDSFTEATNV
Nature of the test: Partial antagonist activity at neuropeptide Y receptor Y2.

The target in test [3] is T3, Neuropeptide Y receptor type 2 (Homo sapiens) (UniProt P49146).
T3 sequence (whole entry): T2 sequence (P49146 whole entry)
Nature of the test: Antagonist activity at neuropeptide Y receptor Y2 at 10 uM.

Calls of active or inactive are those of the source.

As for `COc1ccc(NC(=S)N2CCC(C(O)(c3ccccc3)c3ccccc3)CC2)cc1C(F)(F)F`, in test [1], the outcome was inactive. The IC50 in test [2] was 6.08 µM.

As to `CCOC(=O)c1cccc(NC(=S)N2CCC(C(O)(c3ccccc3)c3ccccc3)CC2)c1`, the result in test [1] was inactive. Inhibition in test [2] was half-maximal at 0.238 µM (IC50).

With `COc1cccc(NC(=S)N2CCC(C(O)(c3ccccc3)c3ccccc3)CC2)c1`, the result in test [1] was inactive. The same compound yielded an IC50 in test [2] of 8.16 µM.

For `OC(c1ccccc1)(c1ccccc1)C1CCN(C(=S)Nc2ccc(N3CCCCC3)cc2)CC1`, the result in test [1] was inactive. The same compound came in with an IC50 in test [2] of 0.271 µM.

In the case of `CCOc1ccc(NC(=S)N2CCC(C(O)(c3ccccc3)c3ccccc3)CC2)c(C(F)(F)F)c1`, the result in test [1] and in test [3] was inactive.

Consider `CN(C)S(=O)(=O)c1ccc(NC(=S)N2CCC(C(O)(c3ccccc3)c3cccnc3)CC2)cc1` (stereo not given), for which the result in test [1] and in test [3] was inactive.

On to `CCOc1ccc(NC(=S)N2CCC(C(O)c3ccccc3)CC2)cc1` (stereo not given), for which the outcome in test [1] and in test [3] was inactive.

`CCN(CC)C(=O)c1cccc(OC(=O)N2CCC(C(O)(c3ccccc3)c3ccccc3)CC2)c1`: the result in test [1] and in test [3] was inactive.

On to `CCN(CC)S(=O)(=O)c1cccc(OC(=O)N2CCC(C(O)(c3ccccc3)c3ccccc3)CC2)c1`, for which the result in test [1] and in test [3] was inactive.

In the case of `CCOc1ccc(NC(=S)N2CCC(C(O)(c3ccccc3)C3CCCCC3)CC2)cc1` (stereo not given), the result in test [1] and in test [3] was inactive.

For orientation: IC50 means the concentration at which inhibition is half-maximal. Low readings indicate higher potency, high ones lower potency.

Source of the values: ChEMBL document CHEMBL2029318, “Synthesis and SAR of selective small molecule neuropeptide Y Y2 receptor antagonists” (Bioorg Med Chem Lett, 2012).
